{"source": "patent US9624167B2", "about": "“N-(4-hydroxy-4-methyl-cyclohexyl)-4-phenyl-benzenesulfonamides and N-(4-hydroxy-4-methyl-cyclohexyl)-4-(2-pyridyl)benzenesulfonamides and their therapeutic use” (PIMCO 2664 LIMITED, priority 2013, dated 2017)", "key": {"[1]": {"test_system": "collagen-induced arthritis", "experiment": "Mouse Collagen-Induced Arthritis", "assay_type": "in vivo, DBA/1j mice", "conditions": "10 mg/kg/day oral gavage, once daily for 14 days, arthritic index vs control", "method": "Seven- to eight-week-old male DBA/1j mice were used for all procedures. Animals were housed in groups of 10, and were maintained at 21° C.±2° C. on a 12-hour light/dark cycle with food and water ad libitum. […]. All mice were immunised subcutaneously with 200 μg of bovine type II collagen in CFA. 21 days later, all mice were immunised subcutaneously with 100 μg of bovine type II collagen in IFA.\nThe mice started to develop signs and symptoms of arthritis following the ‘booster’ immunisation.\n(§1) For macroscopic assessment of arthritis, the following signs were monitored in each paw of each mouse three times per week and summed to generate the Arthritic Index (AI) (the maximum AI for one animal is 16): • 0=no visible effects of arthritis. • 1=oedema and/or erythema of 1 digit. • 2=oedema and/or erythema of 2 digits. • 3=oedema and/or erythema of more than 2 digits. • 4=severe arthritis of entire paw and digits.\nAnimals were sorted into treatment groups with a mean arthritic index of 2.5 and then dosed once daily for 14 days with compound by oral gavage for test compounds, or by subcutaneous injection at a dose of 10 mg/kg for the positive control, etanercept. After completion of the experiment, the mice were sacrificed.\n(§2) The data were analysed by generating an average of the arthritic index across each treatment group. The mean arthritic index was then compared to the arthritic index of control (untreated) animals using the following formula to generate a percentage inhibition of disease."}, "[2]": {"experiment": "Maximum Tolerated Dose, Sprague-Dawley rats", "conditions": "rat, in vivo, oral, ascending dose", "method": "The acute safety of the compounds was assessed in rats in order to enable determination of the maximum tolerated dose (MTD), an indication of a compound's safety in animals. The higher the MTD, the greater is the potential safety of the compound being tested.\nTwo male and two female Sprague-Dawley rats, aged 8-12 weeks, were dosed at each dose level in an ascending dose study design. The test compounds were administered orally as a suspension formulated in 0.5% carboxymethylcellulose (CMC)/0.1% Tween-80 in a dose volume of 10 mL/kg. Animals were given free access to food throughout the study.\nAnimals were observed on at least two occasions during the first hour following dosing, approximately 30 minutes apart, and thereafter at hourly intervals for the remainder of the dosing day for at least 4 hours. […] The nature and severity, where appropriate, of the clinical signs and time were recorded at each observation. Observations included changes in the skin, fur, eyes, and mucous membranes, and also the respiratory, circulatory, autonomic, and central nervous system, as well as somatomotor activity and behaviour pattern. Particular attention was directed towards the observation of tremors, convulsions, salivation, diarrhoea, lethargy, sleep, and coma.\nAt the completion of the study, the results were expressed as the maximum tolerated dose for each compound, this being the highest of each without unacceptable toxicity.\nThe maximum dose without unacceptable side-effects was determined to be the MTD (expressed in mg/kg)."}, "hERG ion channel": {"target": "T1, hERG ion channel (Homo sapiens, UniProt Q12809)", "T1 construct": "expressed in transfected cells; host or cells: Chinese Hamster Ovary cells (hERG-CHO), stably transfected", "T1 sequence (Q12809 whole entry)": "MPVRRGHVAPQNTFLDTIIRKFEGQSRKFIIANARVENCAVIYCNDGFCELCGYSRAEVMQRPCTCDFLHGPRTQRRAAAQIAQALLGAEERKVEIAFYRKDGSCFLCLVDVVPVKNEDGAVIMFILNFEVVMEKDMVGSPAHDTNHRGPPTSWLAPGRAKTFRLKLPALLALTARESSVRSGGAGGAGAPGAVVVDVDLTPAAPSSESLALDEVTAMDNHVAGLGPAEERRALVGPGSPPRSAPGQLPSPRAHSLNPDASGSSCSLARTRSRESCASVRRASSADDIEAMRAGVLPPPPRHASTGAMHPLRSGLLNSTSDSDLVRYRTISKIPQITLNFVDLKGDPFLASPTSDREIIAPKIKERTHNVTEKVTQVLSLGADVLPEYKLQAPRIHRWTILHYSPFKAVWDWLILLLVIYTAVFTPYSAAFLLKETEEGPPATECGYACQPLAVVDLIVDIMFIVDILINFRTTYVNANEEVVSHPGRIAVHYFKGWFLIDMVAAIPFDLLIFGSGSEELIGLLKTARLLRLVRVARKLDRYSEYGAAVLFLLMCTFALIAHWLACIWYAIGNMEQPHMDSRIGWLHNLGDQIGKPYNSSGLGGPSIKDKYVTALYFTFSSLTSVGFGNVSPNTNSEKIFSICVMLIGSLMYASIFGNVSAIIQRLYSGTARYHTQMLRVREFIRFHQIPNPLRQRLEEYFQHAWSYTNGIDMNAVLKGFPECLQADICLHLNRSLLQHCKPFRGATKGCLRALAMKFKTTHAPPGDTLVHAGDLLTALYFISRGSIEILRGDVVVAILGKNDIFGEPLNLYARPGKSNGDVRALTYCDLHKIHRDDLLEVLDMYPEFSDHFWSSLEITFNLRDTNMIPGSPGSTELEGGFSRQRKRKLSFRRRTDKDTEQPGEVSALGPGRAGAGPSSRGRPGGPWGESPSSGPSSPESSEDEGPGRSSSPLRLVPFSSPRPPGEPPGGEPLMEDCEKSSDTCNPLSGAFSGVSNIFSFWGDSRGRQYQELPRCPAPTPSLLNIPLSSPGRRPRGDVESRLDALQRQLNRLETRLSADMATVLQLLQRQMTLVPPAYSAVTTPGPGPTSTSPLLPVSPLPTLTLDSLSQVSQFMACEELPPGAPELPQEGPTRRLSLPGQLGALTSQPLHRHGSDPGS", "experiment": "hERG Ion Channel Assay (Q-patch, hERG-CHO cells)", "assay_type": "cell-based", "conditions": "hERG tail current, hERG-CHO cells, Q-patch; read-out: IC50 (1)", "procedure,_shortened": "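Automated whole-cell Q-patch on hERG-CHO cells (held at 30° C for 24–48 h beforehand), −80 mV holding, +20 mV for 2 s then −40 mV for 1 s to elicit tail current every 5 s. Cumulative rising concentrations, 5 min each; percent tail-current inhibition fitted to three-parameter logistic for IC50.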"}, "[3]": {"test_system": "pristane-induced arthritis", "experiment": "Rat Pristane-Induced Arthritis Study", "assay_type": "in vivo", "method": "Female Lewis rats were used for all procedures. Animals were housed in groups of 5, and were maintained at 21° C.±2° C. on a 12-hour light/dark cycle with food and water ad libitum. Arthritis was induced by the administration of 0.3 mL pristane intra-dermally at the base of the tail. The rats started to develop signs and symptoms of arthritis approximately seven days after the pristane injection.\nas §1, with “and digits including limb deformation and ankylosis of the joint.” for “and digits.”\nAnimals were sorted into treatment groups prior to pristane administration and dosed once daily for 28 days with test compound at doses of 3 and 10 mg/kg/day by oral gavage, or by intraperitoneal injection at a dose of 0.05 mg/kg for the positive control, methotrexate. After completion of the experiment, the rats were sacrificed.\nas §2"}, "[4]": {"experiment": "Rodent pharmacokinetics study", "assay_type": "in vivo, Sprague-Dawley rats", "conditions": "rat, dosed at 10 mg/kg orally (‡)"}}, "note": "Read-outs that look alike come from different tables or passages of the source."}
{"smiles": "C[C@]1(O)CC[C@@H](NS(=O)(=O)c2ccc(-c3ccc(F)cc3F)cc2)CC1", "note": "[ABD899, reference compound]", "values": [{"measurement": "% inhibition of disease", "setting": "[1]", "result": 77, "unit": "%"}, {"measurement": "MTD", "setting": "[2]; female Sprague-Dawley rats, read-out: Maximum tolerated dose, Females", "result": 30, "unit": "mg/kg"}, {"measurement": "MTD", "setting": "[2]; male Sprague-Dawley rats, read-out: Maximum tolerated dose, Males", "result": 30, "unit": "mg/kg"}, {"measurement": "IC50", "setting": "hERG ion channel", "result": 2900, "unit": "nM"}, {"measurement": "% inhibition of disease", "setting": "[3]; 3 mg/kg/day oral gavage, once daily for 28 days", "result": 21, "unit": "%"}, {"measurement": "Tolerability during extended dosing", "setting": "[3]; rat pristane-induced arthritis study, oral, up to 28 days", "result": "poorly tolerated"}, {"measurement": "p.o. AUC", "setting": "[4]", "result": 10740, "unit": "ng·min/mL"}]}
